Data: US12024507B2, “Compounds as GLP-1R agonists” (Terns Pharmaceuticals, Inc., priority 2021, dated 2024)

Molecular target: T1, human GLP-1R receptor (Homo sapiens, UniProt P43220)
T1 construct: expressed in transfected cells
Experiment: GLP-1R cell assay (cAMP TR-FRET, low expression CHO-K1_hGLP-1Rlow_clone10 cell line)
Type: cell-based
Conditions: CHO-K1_hGLP-1Rlow_clone10 cells, relative to control GLP-1 peptide agonist, read-out: GLP1 EC50
Procedure: Stable cell lines expressing high and low GLP-1R surface expression were generated in CHO-K1 cells transfected (Fugene 6) with a puromycin selectable DNA plasmid encoding human GLP-1R receptor (accession number: NM_002062.5) under control of an EF1A promoter. Transfected cells were seeded into 24-well plates (9,000 cells/well) containing complete medium and incubated in a humidified incubator at 37° C. with 5% carbon dioxide. After overnight incubation, medium was replaced with complete medium supplemented with puromycin (6 μg/mL) and refreshed every 2-3 days to select for stably transfected cells. Individual pools of selected cells were expanded prior to analysis for responsiveness to GLP-1 control peptide using a TR-FRET assay to detect cAMP (LANCE Ultra cAMP Assay, Perkin Elmer). Briefly, cells were collected in Versene solution, plated in 384-well plates (1,000 cells/well) and combined with serially diluted GLP-1R control peptide (10 nL) using an acoustic dispenser (ECHO). Plates were incubated for 30 minutes at 25° C. prior to the addition of EU-cAMP tracer (5 μL) and Ulight-anti-cAMP (5 μL) reagents to each well, followed by 15 minutes incubation at 25° C. TR-FRET signal was detected using an EnVision Multimode Plate Reader (excitation=320 nm; emission=615 and 655 nm). Dose-response curves were used to generate EC50 values as a measure of responsiveness to the GLP-1R control peptide. Selected cell lines were monitored for responsiveness over multiple passages to ensure stability. […] Briefly, GLP-1R expression was analyzed by flow cytometry using a fluorescein-labeled Exendin-4 peptide fluorescent probe (FLEX). Cells were harvested in Versene solution and washed 3-times with PBS+0.5% BSA before incubation with FLEX reagent (10 μM) for 2 hours at room temperature. After incubation, cells were washed 3-times in PBS+0.5% BSA before final resuspension in PBS prior to analysis by flow cytometry to measure FLEX mean fluorescence intensity (MFI) as a measure of GLP-1R expression on the cell surface.
For compound testing in the CHO-K1_hGLP-1Rlow_clone10 cell line, cells were seeded in 384-well plates (1,000 cells/well). Test compounds were serially diluted in DMSO (10-point, 3-fold dilution), added to wells using an ECHO dispenser (10 nL/well) and plates were centrifuged for 1 min and agitated for 2 min at room temperature prior to 30-minute incubation at 25° C. After incubation, Eu-cAMP (5 μL) and Ulight-anti-cAMP (5 μL) reagents were added to each well, followed by centrifugation for 1 minute, agitation for 2 minutes at room temperature, and final incubation of the plates at 25° C. for 15 minutes. Plates were read using an EnVision microplate reader (excitation=320 nm; emission=615 and 655 nm). Dose-response curves were generated from duplicate wells based on percent activation calculated relative to a control GLP-1 peptide agonist that was run in parallel. EC50 values were determined by fitting percent activation as a function of compound concentration using the Hill equation (XLfit).
The compounds tested were compound samples prepared according to the General Procedures described in the Examples section.

T1 sequence (P43220 24-463): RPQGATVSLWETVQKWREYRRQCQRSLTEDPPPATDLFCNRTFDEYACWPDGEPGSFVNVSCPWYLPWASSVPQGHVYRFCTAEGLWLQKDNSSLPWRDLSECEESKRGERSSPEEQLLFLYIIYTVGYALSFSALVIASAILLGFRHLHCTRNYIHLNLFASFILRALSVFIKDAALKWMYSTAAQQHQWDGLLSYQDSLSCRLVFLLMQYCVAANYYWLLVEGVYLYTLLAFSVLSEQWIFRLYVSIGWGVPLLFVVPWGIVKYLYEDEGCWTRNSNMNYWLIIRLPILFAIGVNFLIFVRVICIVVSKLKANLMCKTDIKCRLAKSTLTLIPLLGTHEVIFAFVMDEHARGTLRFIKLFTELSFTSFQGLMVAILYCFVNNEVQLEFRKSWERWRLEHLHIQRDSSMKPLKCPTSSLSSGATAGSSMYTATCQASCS

EC50 | SMILES
15 nM | N#Cc1ccc(COc2cccc(C3CCN(Cc4nc5ccc(-c6nnn[nH]6)cc5n4C[C@@H]4CCO4)CC3)n2)c(F)c1 [Compound 8]
25.2 nM | N#Cc1ccc(COc2cccc(C3CCN(Cc4nc5ccc(-c6nc(=O)[nH]o6)cc5n4Cc4cncs4)CC3)n2)c(F)c1 [Compound 13, 3-fluoro-4-(((6-(1-((6-(3-oxo-2,3-dihydro-1,2,4-oxadiazol-5-yl)-1-(thiazol-5-ylmethyl)-1H-benzo[d]imidazol-2-yl)methyl)piperidin-4-yl)pyridin-2-yl)oxy)methyl)benzonitrile]
